Calls of active or inactive are those of the source. No rule for the calls is given here.

For this series, the system named is CCRIS mutagenicity, Ames/micronucleus/aberration tests. The experiment in a line: CCRIS mutagenicity studies.
Where [1] appears, read: Test System: AMES SALMONELLA TYPHIMURIUM, Strain/Indicator: TA98, Metabolic Activation: NONE, Method: STANDARD PLATE.
The mark [2] stands for this setting: Test System: AMES SALMONELLA TYPHIMURIUM, Strain/Indicator: TA100, Metabolic Activation: NONE, Method: STANDARD PLATE.
[3] abbreviates: Test System: AMES SALMONELLA TYPHIMURIUM, Strain/Indicator: TA98, Metabolic Activation: RAT, LIVER, S-9, AROCLOR 1254, Method: STANDARD PLATE.
Setting [4] is: Test System: AMES SALMONELLA TYPHIMURIUM, Strain/Indicator: TA98, Metabolic Activation: NONE, Method: PREINCUBATION
Setting [5] is: Test System: AMES SALMONELLA TYPHIMURIUM, Strain/Indicator: TA100, Metabolic Activation: NONE, Method: PREINCUBATION
Where [6] appears, read: Test System: AMES SALMONELLA TYPHIMURIUM, Strain/Indicator: TA1535, Metabolic Activation: HAMSTER, LIVER, S-9, AROCLOR 1254 (10%), Method: PREINCUBATION
The mark [7] stands for this setting: Test System: AMES SALMONELLA TYPHIMURIUM, Strain/Indicator: TA1535, Metabolic Activation: NONE, Method: PREINCUBATION
Setting [8] is: Test System: AMES SALMONELLA TYPHIMURIUM, Strain/Indicator: TA1537, Metabolic Activation: NONE, Method: PREINCUBATION

As to `Nc1ccc2c3c(cccc13)-c1ccccc1-2`, the mutagenic call was “active; positive” (Test System: AMES SALMONELLA TYPHIMURIUM, Strain/Indicator: TA98, Metabolic Activation: RAT, LIVER, S-9, AROCLOR 1254 (2 OR 4%), Method: STANDARD PLATE); “active; positive” (Test System: AMES SALMONELLA TYPHIMURIUM, Strain/Indicator: TA100, Metabolic Activation: RAT, LIVER, S-9, AROCLOR 1254 (4%), Method: STANDARD PLATE); “inactive; negative” (Test System: AMES SALMONELLA TYPHIMURIUM, Strain/Indicator: TA1535, Metabolic Activation: RAT, LIVER, S-9, AROCLOR 1254 (4%), Method: STANDARD PLATE); “active; positive” (Test System: AMES SALMONELLA TYPHIMURIUM, Strain/Indicator: TA1537, Metabolic Activation: RAT, LIVER, S-9, AROCLOR 1254 (4%), Method: STANDARD PLATE).
For `CC(C)=CCCC(C)CCO` (stereo not given), the mutagenic call by setting is: under setting [1], “inactive; negative”; (Test System: AMES SALMONELLA TYPHIMURIUM, Strain/Indicator: TA98, Metabolic Activation: S-9, Method: STANDARD PLATE) “inactive; negative”; under setting [2], “inactive; negative”.
With `O=[N+]([O-])c1ccc2cc(O)c3cccc4ccc1c2c43`, the mutagenic call is “active; positive” under setting [1] and “active; positive” under setting [3].
In the case of `O=C1NC(=O)C(O)(O)C(=O)N1`, the mutagenic call was “inactive; negative” (End Point: IN VITRO CHROMOSOMAL ABERRATIONS, Test System: CHO CELLS, Metabolic Activation: NONE); “inactive; negative” (End Point: IN VITRO CHROMOSOMAL ABERRATIONS, Test System: CHO CELLS, Metabolic Activation: RAT, LIVER, S-9, AROCLOR 1254); “inactive; negative” (Test System: AMES SALMONELLA TYPHIMURIUM, Strain/Indicator: TA97, Metabolic Activation: HAMSTER, LIVER, S-9, AROCLOR 1254 (10 OR 30%), Method: PREINCUBATION); “inactive; negative” (Test System: AMES SALMONELLA TYPHIMURIUM, Strain/Indicator: TA97, Metabolic Activation: NONE, Method: PREINCUBATION); “inactive; negative” (Test System: AMES SALMONELLA TYPHIMURIUM, Strain/Indicator: TA97, Metabolic Activation: RAT, LIVER, S-9, AROCLOR 1254 (10 OR 30%), Method: PREINCUBATION); “inactive; negative” (Test System: AMES SALMONELLA TYPHIMURIUM, Strain/Indicator: TA98, Metabolic Activation: HAMSTER, LIVER, S-9, AROCLOR 1254 (10 OR 30%), Method: PREINCUBATION). The mutagenic call runs as follows: under setting [4], “inactive; negative”; (Test System: AMES SALMONELLA TYPHIMURIUM, Strain/Indicator: TA98, Metabolic Activation: RAT, LIVER, S-9, AROCLOR 1254 (10 OR 30%), Method: PREINCUBATION) “inactive; negative”; (Test System: AMES SALMONELLA TYPHIMURIUM, Strain/Indicator: TA100, Metabolic Activation: HAMSTER, LIVER, S-9, AROCLOR 1254 (10 OR 30%), Method: PREINCUBATION) “inactive; negative”; under setting [5], “inactive; negative”; (Test System: AMES SALMONELLA TYPHIMURIUM, Strain/Indicator: TA100, Metabolic Activation: RAT, LIVER, S-9, AROCLOR 1254 (10 OR 30%), Method: PREINCUBATION) “inactive; negative”; under setting [6], “inactive; negative”. Further, the mutagenic call by setting is: (Test System: AMES SALMONELLA TYPHIMURIUM, Strain/Indicator: TA1535, Metabolic Activation: HAMSTER, LIVER, S-9, AROCLOR 1254 (30%), Method: PREINCUBATION) “inactive; negative”; under setting [7], “inactive; negative”; (Test System: AMES SALMONELLA TYPHIMURIUM, Strain/Indicator: TA1535, Metabolic Activation: RAT, LIVER, S-9, AROCLOR 1254 (10 OR 30%), Method: PREINCUBATION) “inactive; negative”.
As to `Cc1cc2c3c(ccc2c2ccccc12)[C@@H](O)[C@H](O)[C@@H]1O[C@H]31`, under setting [5], the mutagenic call is “inactive; negative”.
Turning to `CC[C@H]1OC(=O)[C@H](C)[C@@H](O[C@H]2C[C@@](C)(OC)[C@@H](O)[C@H](C)O2)[C@H](C)[C@@H](O[C@@H]2O[C@H](C)C[C@H](N(C)C)[C@H]2O)[C@](C)(O)C[C@@H](C)/C(=N\OCOCCOC)[C@H](C)[C@@H](O)[C@]1(C)O`, the mutagenic call was “inactive; negative” under setting [4]; “inactive; negative” (Test System: AMES SALMONELLA TYPHIMURIUM, Strain/Indicator: TA98, Metabolic Activation: RAT, LIVER, S-9, PHENOBARBITAL, Method: PREINCUBATION); “inactive; negative” under setting [5]; “inactive; negative” (Test System: AMES SALMONELLA TYPHIMURIUM, Strain/Indicator: TA100, Metabolic Activation: RAT, LIVER, S-9, PHENOBARBITAL, Method: PREINCUBATION); “inactive; negative” under setting [7]; “inactive; negative” (Test System: AMES SALMONELLA TYPHIMURIUM, Strain/Indicator: TA1535, Metabolic Activation: RAT, LIVER, S-9, PHENOBARBITAL, Method: PREINCUBATION). Moreover, the mutagenic call under setting [8] is “inactive; negative”; the mutagenic call (Test System: AMES SALMONELLA TYPHIMURIUM, Strain/Indicator: TA1537, Metabolic Activation: RAT, LIVER, S-9, PHENOBARBITAL, Method: PREINCUBATION) is “inactive; negative”; the mutagenic call (Test System: E. COLI, Strain/Indicator: WP2 UVRA, Metabolic Activation: NONE, Method: PREINCUBATION) was “inactive; negative”; the mutagenic call (Test System: E. COLI, Strain/Indicator: WP2 UVRA, Metabolic Activation: RAT, LIVER, S-9, PHENOBARBITAL, Method: PREINCUBATION) was “inactive; negative”.
In the case of `CCOP(=S)(OCC)SCSC(C)(C)C`, the mutagenic call was “inactive; negative” (Test System: AMES SALMONELLA TYPHIMURIUM, Strain/Indicator: TA98, Metabolic Activation: HAMSTER, LIVER, S-9, AROCLOR 1254 (10%), Method: PREINCUBATION); “inactive; negative” under setting [4]; “inactive; negative” (Test System: AMES SALMONELLA TYPHIMURIUM, Strain/Indicator: TA98, Metabolic Activation: RAT, LIVER, S-9, AROCLOR 1254 (10%), Method: PREINCUBATION); “inactive; negative” (Test System: AMES SALMONELLA TYPHIMURIUM, Strain/Indicator: TA100, Metabolic Activation: HAMSTER, LIVER, S-9, AROCLOR 1254 (10%), Method: PREINCUBATION); “inactive; negative” under setting [5]; “inactive; negative” (Test System: AMES SALMONELLA TYPHIMURIUM, Strain/Indicator: TA100, Metabolic Activation: RAT, LIVER, S-9, AROCLOR 1254 (10%), Method: PREINCUBATION). In addition, the mutagenic call reads like this: under setting [6], “inactive; negative”; under setting [7], “inactive; negative”; (Test System: AMES SALMONELLA TYPHIMURIUM, Strain/Indicator: TA1535, Metabolic Activation: RAT, LIVER, S-9, AROCLOR 1254 (10%), Method: PREINCUBATION) “inactive; negative”; (Test System: AMES SALMONELLA TYPHIMURIUM, Strain/Indicator: TA1537, Metabolic Activation: HAMSTER, LIVER, S-9, AROCLOR 1254 (10%), Method: PREINCUBATION) “inactive; negative”; under setting [8], “inactive; negative”; (Test System: AMES SALMONELLA TYPHIMURIUM, Strain/Indicator: TA1537, Metabolic Activation: RAT, LIVER, S-9, AROCLOR 1254 (10%), Method: PREINCUBATION) “inactive; negative”.
For `N#CC(Cl)Br` (stereo not given), the mutagenic call reads like this: under setting [1], “inactive; negative”; under setting [3], “inactive; negative”; (Test System: AMES SALMONELLA TYPHIMURIUM, Strain/Indicator: TA100, Metabolic Activation: NONE, Method: FLUCTUATION TEST) “active; positive”; under setting [2], “inactive; negative”; (Test System: AMES SALMONELLA TYPHIMURIUM, Strain/Indicator: TA100, Metabolic Activation: RAT, LIVER, S-9, AROCLOR 1254, Method: FLUCTUATION TEST) “inactive; negative”; (Test System: AMES SALMONELLA TYPHIMURIUM, Strain/Indicator: TA100, Metabolic Activation: RAT, LIVER, S-9, AROCLOR 1254, Method: STANDARD PLATE) “active; positive”. In addition, the mutagenic call is “active; positive” (Test System: AMES SALMONELLA TYPHIMURIUM, Strain/Indicator: TA1535, Metabolic Activation: NONE, Method: STANDARD PLATE) and “active; positive” (Test System: AMES SALMONELLA TYPHIMURIUM, Strain/Indicator: TA1535, Metabolic Activation: RAT, LIVER, S-9, AROCLOR 1254, Method: STANDARD PLATE).

The values are drawn from PubChem BioAssay AID1259407 (Chemical Carcinogenesis Research Information System (CCRIS), 2018).
